Results published in ChEMBL document CHEMBL6083258, “Advances in synthesis of novel annulated azecines and their unique pharmacological properties” (Eur J Med Chem, 2024).
Values belong to the compound of their own block, whether it stands above or below them.

Legend:
[1] = target: T1, Amine oxidase [flavin-containing] B (Homo sapiens, UniProt P27338); assay: Inhibition of MAO-B (unknown origin)
T1 sequence (P27338 whole entry): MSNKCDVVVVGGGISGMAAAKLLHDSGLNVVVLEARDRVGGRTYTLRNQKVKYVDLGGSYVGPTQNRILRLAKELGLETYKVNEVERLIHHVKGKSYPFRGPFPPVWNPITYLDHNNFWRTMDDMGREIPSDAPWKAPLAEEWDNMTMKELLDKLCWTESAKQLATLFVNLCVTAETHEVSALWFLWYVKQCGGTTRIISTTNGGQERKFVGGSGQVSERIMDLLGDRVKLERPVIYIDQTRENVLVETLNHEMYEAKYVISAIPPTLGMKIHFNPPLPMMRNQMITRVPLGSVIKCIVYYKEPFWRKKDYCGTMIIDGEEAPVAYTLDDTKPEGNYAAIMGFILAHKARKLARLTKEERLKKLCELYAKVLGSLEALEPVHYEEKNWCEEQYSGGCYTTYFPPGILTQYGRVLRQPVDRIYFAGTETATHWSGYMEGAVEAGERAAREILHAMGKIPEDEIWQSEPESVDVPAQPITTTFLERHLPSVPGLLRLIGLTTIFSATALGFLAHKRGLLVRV

Acetylcholinesterase [2] = target: T2, Acetylcholinesterase (Homo sapiens, UniProt P22303); assay: Inhibition of human AChE using acetylthiocholine iodide as substrate after 15 mins by Ellman's method
HepG2 = assay: Antiproliferative activity against human HepG2 cells assessed as reduction in cell viability incubated for 48 hrs by MTT assay; assay type: functional, cell-based; settings: HepG2, 48 h
MCF7 = assay: Antiproliferative activity against human MCF7 cells assessed as reduction in cell viability incubated for 48 hrs by MTT assay; assay type: functional, cell-based; settings: MCF7, 48 h
[3] = target: ATP-dependent translocase ABCB1 (Homo sapiens, UniProt P08183); assay: Inhibition of p-glycoprotein (unknown origin)
Acetylcholinesterase [4] = target: T2, Acetylcholinesterase; assay: Binding affinity to AChE (unknown origin) assessed as inhibition constant

T2 sequence (P22303 whole entry): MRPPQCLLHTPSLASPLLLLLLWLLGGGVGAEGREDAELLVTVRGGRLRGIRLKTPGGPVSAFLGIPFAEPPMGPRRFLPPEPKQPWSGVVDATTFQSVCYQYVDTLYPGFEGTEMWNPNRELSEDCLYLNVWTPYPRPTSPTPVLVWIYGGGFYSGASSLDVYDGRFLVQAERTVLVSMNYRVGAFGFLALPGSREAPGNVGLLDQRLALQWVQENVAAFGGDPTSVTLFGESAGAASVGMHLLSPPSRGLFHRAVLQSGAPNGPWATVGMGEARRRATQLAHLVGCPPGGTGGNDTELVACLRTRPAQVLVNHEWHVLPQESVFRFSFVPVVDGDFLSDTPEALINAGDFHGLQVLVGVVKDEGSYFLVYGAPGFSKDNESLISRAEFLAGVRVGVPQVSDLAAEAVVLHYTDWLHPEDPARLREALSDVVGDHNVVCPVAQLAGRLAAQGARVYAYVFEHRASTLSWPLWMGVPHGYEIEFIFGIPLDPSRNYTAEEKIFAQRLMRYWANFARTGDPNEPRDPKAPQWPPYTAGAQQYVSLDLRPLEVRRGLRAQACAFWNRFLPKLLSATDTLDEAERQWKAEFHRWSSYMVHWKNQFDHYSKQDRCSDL
ATP-dependent translocase ABCB1, sequence (P08183 whole entry): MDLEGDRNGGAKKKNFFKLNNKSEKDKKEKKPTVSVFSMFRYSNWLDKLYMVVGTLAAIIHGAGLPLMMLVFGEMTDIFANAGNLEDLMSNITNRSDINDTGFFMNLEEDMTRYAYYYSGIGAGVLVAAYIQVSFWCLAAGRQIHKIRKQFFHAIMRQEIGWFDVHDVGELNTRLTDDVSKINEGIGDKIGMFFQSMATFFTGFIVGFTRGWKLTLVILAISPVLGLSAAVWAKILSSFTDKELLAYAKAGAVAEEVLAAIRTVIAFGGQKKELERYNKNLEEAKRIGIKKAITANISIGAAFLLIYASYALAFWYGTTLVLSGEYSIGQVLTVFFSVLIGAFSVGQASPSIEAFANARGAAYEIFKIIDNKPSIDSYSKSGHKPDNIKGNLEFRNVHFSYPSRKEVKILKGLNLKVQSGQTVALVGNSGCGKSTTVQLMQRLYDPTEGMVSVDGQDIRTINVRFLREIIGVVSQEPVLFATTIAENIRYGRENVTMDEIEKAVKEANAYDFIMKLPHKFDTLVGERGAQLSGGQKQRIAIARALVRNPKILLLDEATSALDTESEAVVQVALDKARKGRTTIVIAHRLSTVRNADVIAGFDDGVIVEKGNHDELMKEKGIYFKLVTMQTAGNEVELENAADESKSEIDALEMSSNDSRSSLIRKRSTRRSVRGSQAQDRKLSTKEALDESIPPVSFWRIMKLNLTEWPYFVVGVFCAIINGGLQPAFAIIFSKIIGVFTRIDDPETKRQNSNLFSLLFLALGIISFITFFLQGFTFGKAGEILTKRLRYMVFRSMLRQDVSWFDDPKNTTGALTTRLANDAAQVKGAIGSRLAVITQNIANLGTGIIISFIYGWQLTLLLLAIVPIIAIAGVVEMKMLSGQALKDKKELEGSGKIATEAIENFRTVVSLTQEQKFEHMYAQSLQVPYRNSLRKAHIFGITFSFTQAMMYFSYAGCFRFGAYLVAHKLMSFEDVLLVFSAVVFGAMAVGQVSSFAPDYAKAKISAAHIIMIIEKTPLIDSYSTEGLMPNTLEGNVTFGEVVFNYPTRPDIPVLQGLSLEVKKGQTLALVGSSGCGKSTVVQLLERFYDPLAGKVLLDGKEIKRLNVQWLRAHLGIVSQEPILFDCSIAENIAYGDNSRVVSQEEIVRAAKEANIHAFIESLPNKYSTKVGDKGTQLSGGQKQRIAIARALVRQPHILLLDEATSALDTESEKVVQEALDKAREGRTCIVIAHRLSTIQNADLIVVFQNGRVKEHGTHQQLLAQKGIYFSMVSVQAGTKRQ

Compound: COC(=O)/C1=C/N(C)CCc2cc(OC)c(OC)cc2C(C)=C=C1c1ccccc1
IC50 [1]: 7.1 µM
IC50 (Acetylcholinesterase [2]): 14 µM

IC50 (HepG2): > 100 µM
IC50 (MCF7): > 100 µM
IC50 [3]: 0.0042 µM
Compound: COC(=O)/C1=C/N(C)CCc2cc(OC)c(OC)cc2C(c2ccc(OC)cc2)=C=C1c1ccccc1

Compound: COCC1=C=C(c2ccc(OC)cc2)c2cc(OC)c(OC)cc2CCN(C)/C=C\1C(=O)OC
Ki (Acetylcholinesterase [4]): 4.9 µM
